Test results as given in publication PMC9135230, “Extending the lore of curcumin as dipteran Butyrylcholine esterase (BChE) inhibitor: A holistic molecular interplay assessment” (PLoS ONE, 2022).

Tests used:
[1] = system: T1, Butyrylcholine esterase (BChE); assay: Ellman assay in larval lysate; Michaelis-Menten and Lineweaver-Burk kinetics; assay type: biochemical, Aedes aegypti
T1 construct: larval lysate (4th instar), native enzyme activity

[2] = system: T1, Butyrylcholine esterase (BChE); assay: Ellman assay with S-butyrylthiocholine iodide in larval lysate; assay type: biochemical, Aedes aegypti

Row | SMILES | IC50 [1] [µM] | IC50 [2] [µM]
1 | COc1cc(/C=C/C(=O)CC(=O)/C=C/c2ccc(O)c(OC)c2)ccc1O [curcumin] | 201 | –
2 | CCN(C)C(=O)Oc1cccc([C@H](C)N(C)C)c1 [rivastigmine] | – | 4.97
